Key:
Format in all cases: cell-based, human
JEG-3 cells [1] = test: Mitochondrial membrane potential, JC-10 assay (HTTS); details: for EC50: four-parameter fit, estimates meeting inclusion criteria
From the text: (§1) JEG-3 human choriocarcinoma trophoblastic cells (American Type Culture Collection, VA, United States) were maintained in sterile-filtered Minimum Essential Media (MEM) supplemented with L-glutamine and phenol red (Thermo Fisher Scientific, MA, United States), 10% (v/v) heat-inactivated BenchMark Fetal Bovine Serum (Gemini Bio, CA, United States), 1% (v/v) sodium pyruvate (Thermo Fisher Scientific, MA, United States), and 1% (v/v) penicillin streptomycin (Sigma Aldrich, MO, United States). Cells were maintained in an incubator at 37°C with 5% CO2. JEG-3 cells were cultured in 10 cm tissue culture plates and cell passage numbers were recorded.
(§2) A total of 42 perfluoroalkyl substances (PFAS) were evaluated (Supplementary Table S1 contains source and purity). PFAS stock solutions were maintained in 100% methanol as previous work has shown certain PFAS degrade when stored in dimethyl sulfoxide (DMSO; [Gaballah et al., 2020]). […] The vehicle control group consisted of 97.5% media + 2.5% methanol to match the concentration of methanol in the media at the highest PFAS concentration tested (500 µM). Menadione (50–500 µM) was used as a positive control for cytotoxicity assessment. PFAS were de-identified and assigned random numbers to eliminate bias. Chemical exposure plate maps were designed so that all experimental conditions were tested in at least technical duplicates per plate. The outer edges of each plate received media alone and were excluded from all analyses to avoid edge effects. Each plate map included 14 technical replicates of the vehicle control group and 14 technical replicates of media only. Biological replicates were defined as separate 384 well plates tested on separate days using different cell passages. The experimental workflow is depicted in Supplementary Figure S1.
(§3) JEG-3 cells were counted using a Z2 Coulter Particle Counter (Beckman Coulter, CA, United States) and seeded at a density of 2,500 cells per well in black-walled, clear bottom 384 well plates (Corning, #3764) and allowed to adhere overnight. Approximately 24 h later, 384 well plates were imaged using an IncuCyte Zoom live cell imager (Essen BioScience Inc., MI, United States) to obtain baseline cellular confluence measurements prior to chemical dosing (0 h). Media was removed from wells and replaced with fresh media containing chemical treatments (exposure media) using a Viaflo liquid handling device (Integra Biosciences, NH, United States). Within 30 min of exposure media application, plates were again imaged for cellular confluence using the IncuCyte Zoom. Plates were incubated with exposure media for 24 h and then imaged again using the IncuCyte Zoom (24 h).
The JC-10 assay (Enzo Life Sciences, NY, United States) was used to evaluate mitochondrial membrane potential, the main bioenergetic parameter that regulates respiratory rate, ATP synthesis and reactive oxygen species generation. In cells with polarized mitochondrial membranes, the JC-10 dye localizes to the mitochondrial matrix and forms red fluorescent aggregates (540/590 nm). In cells with depolarized mitochondrial membranes, the JC-10 dye localizes in the cytoplasm and converts to a green fluorescent monomer (490/525 nm). Mitochondrial membrane potential was calculated as the ratio of the green and red fluorescence intensities within a well.
At the end of the 24 h exposure period, exposure media was removed from the plate. The plate wells were then washed with 1x phosphate buffered saline (1x PBS). After washing, the JC-10 reagent was suspended in fresh 1x PBS and 20 µl was added to each well at a final concentration of 20 μM (Enzo Life Sciences, NY, United States). The plate was incubated for 1 h at 37°C, and the fluorescence intensities at excitation/emission wavelengths of 490/525 nm and 540/590 nm were measured using a CLARIOstar (BMG Labtech, Offenburg, Germany) plate reader, respectively.
HTTS data were analyzed using a custom data analysis script in R v 1.2.5019 ([R Core Team, 2019]). […]

JEG-3 cells [2] = test: CellTiter-Glo luminescent cell viability assay (HTTS); details: for Viability ↑, lowest concentration at which the mean response value exceeded the mean control value ± 2*SD (rough binning): increase; for cell viability relative to vehicle control (rough binning): after 24 h, in at least one concentration
From the text: as §1, §2, §3
In the same plate evaluated for mitochondrial membrane potential, cell viability measures were duplexed using the CellTiter-Glo (CTG) Luminescent Cell Viability Assay (Promega, WI, United States). CTG reagent was added to each well at a volume of 20 µl. The plate was left at room temperature to incubate for 5 min and then 20 µl from each well was transferred to a low-volume, round-bottom, white 384 well plate (Corning, NY, United States). The CTG reagent lyses cellular and mitochondrial membranes and binds to adenosine triphosphate (ATP) released by cells, which produces a luminescence signal. The intensity of the luminescence was considered a proxy measure for the number of live cells in a well. The luminescence intensities were measured using the CLARIOstar plate reader.
HTTS data were analyzed using a custom data analysis script in R v 1.2.5019 ([R Core Team, 2019]). Briefly, raw data points corresponding to the confluence measurements at 0 and 24 h, the fluorescence intensities corresponding to MMP, and the relative luminescence units (RLU) corresponding to cell viability were imported directly from Microsoft Excel into the R programming environment, RStudio. Separate plates run on separate days using different JEG-3 passages were considered as biologic replicates. […]

JEG-3 cells [3] = test: Proliferation, change in confluence 0-24 h (IncuCyte Zoom, HTTS); details: for minimal effective concentration: read-out: Prolif ↓, lowest concentration at which the mean response value exceeded the mean control value ± 2*SD (rough binning); for Prolif ↑, lowest concentration at which the mean response value exceeded the mean control value ± 2*SD (rough binning): increase; for cellular proliferation relative to vehicle control (rough binning): after 24 h, in at least one concentration
From the text: as §1, §2, §3
Plate well bottom images were evaluated using automated cell masking. The automated cell masking program was developed using IncuCyte Zoom base software. Cell masking parameters were defined using a training set of JEG-3 cell images obtained prior to conducting the experiments and following IncuCyte Zoom software recommendations. Briefly, the training images were obtained from cell culture plates with varying levels of JEG-3 cellular confluence (ranging from ∼15% confluent to ∼95% confluent). Parameters for the automated cell masking were first manually set by an experimenter for 3-6 images of low (∼15–30%), medium (∼30–70%), and high confluence (∼70% or greater). The training images were then evaluated by the automated masking program and manually checked to ensure the parameters were sufficiently strict to ignore background (e.g., blank space on the plate well bottom) but adequately sensitive to detect cell borders. The masking program was then implemented on the experimental plates to obtain a baseline cellular confluence measurement at 0 h and a second confluence measurement at 24 h. […]

[4] = Homo sapiens, JEG-3, 24 h, read-out: Viability EC50 ± SD, JEG-3 cells, 24 h exposure, four-parameter fit, estimates meeting inclusion criteria
[5] = Homo sapiens, JEG-3, 24 h, read-out: Proliferation EC50 ± SD, JEG-3 cells, 24 h exposure, four-parameter fit, estimates meeting inclusion criteria

SMILES	EC50 (JEG-3 cells [2]; [4])	Prolif ↑, lowest concentration at which the mean response value exceeded the mean control value ± 2*SD (rough binning) (JEG-3 cells [3]; JEG-3 cells, 24 h)	cellular proliferation relative to vehicle control (rough binning) (JEG-3 cells [3])	Viability ↑, lowest concentration at which the mean response value exceeded the mean control value ± 2*SD (rough binning) (JEG-3 cells [2]; JEG-3 cells, 24 h)	cell viability relative to vehicle control (rough binning) (JEG-3 cells [2])	other results
OCCC(F)(F)C(F)(F)C(F)(F)C(F)(F)C(F)(F)C(F)(F)C(F)(F)C(F)(F)F [8:2 Fluorotelomer alcohol]	35.7 ± 36.5 µM	–	–	–	–	EC50 (JEG-3 cells [1]; Homo sapiens, JEG-3, 24 h, read-out: MMP EC50 ± SD, JEG-3 cells, 24 h exposure): 95.1 ± 15.3 µM; EC50 (JEG-3 cells [2]; Homo sapiens, JEG-3, 24 h, read-out: viability EC50 ± SE, JEG-3 cells, 24 h): 36 ± 37 µM
O=C(O)C(F)(OC(F)(F)C(F)(F)C(F)(F)F)C(F)(F)F (stereo not shown) [Ammonium perfluoro-2-methyl-3-oxahexanoate]	–	–	–	–	–	minimal effective concentration (JEG-3 cells [3]; Homo sapiens, JEG-3, 24 h): 50 µM; EC50 (JEG-3 cells [3]; Homo sapiens, JEG-3, read-out: Proliferation EC50 ± SD (raw values), JEG-3 cells, raw model output including fits that did not meet inclusion criteria): 997 ± 952 µM
O=C(O)C(F)(OC(F)(F)C(F)(F)C(F)(F)F)C(F)(F)F (stereo not shown) [Perfluoro-2-methyl-3-oxahexanoic acid]	–	450 µM	increased cellular proliferation	–	–	minimal effective concentration (JEG-3 cells [1]; Homo sapiens, JEG-3, 24 h, read-out: MMP ↓, lowest concentration at which the mean response value exceeded the mean control value ± 2*SD (rough binning)): 375 µM; MMP relative to vehicle control (rough binning) (JEG-3 cells [1]; after 24 h, in at least one concentration): reduced MMP; EC50 (JEG-3 cells [3]; read-out: Proliferation EC50 ± SD (raw values), JEG-3 cells, raw model output including fits that did not meet inclusion criteria): 1110 ± 267 µM
O=C(O)C(F)(F)C(F)(F)C(F)(F)C(F)(F)C(F)(F)C(F)(F)C(F)(F)C(F)(F)C(F)(F)C(F)(F)C(F)(F)F [Perfluorododecanoic acid]	361 ± 30.8 µM	–	–	50 µM	increased cell viability	EC50 (JEG-3 cells [3]; [5]): 318 ± 24.5 µM
O=C(O)C(F)(F)C(F)(F)C(F)(F)C(F)(F)C(F)(F)C(F)(F)F [Perfluoroheptanoic acid]	487 ± 409 µM	–	reduced cellular proliferation	–	–	minimal effective concentration (JEG-3 cells [3]; Homo sapiens, JEG-3, 24 h): 450 µM; EC50 (JEG-3 cells [3]; [5]): 277 ± 81.6 µM
O=C(O)C(F)(F)C(F)(F)C(F)(F)C(F)(F)F [Perfluoropentanoic acid]	–	–	–	200 µM	increased cell viability	EC50 (JEG-3 cells [1]; JEG-3 cells, 24 h exposure, read-out: MMP EC50 ± SD): 175 ± 68.4 µM
O=C(O)C(F)(F)C(F)(F)C(F)(F)C(F)(F)C(F)(F)C(F)(F)C(F)(F)C(F)(F)C(F)(F)C(F)(F)C(F)(F)C(F)(F)F [Perfluorotridecanoic acid]	–	50 µM	–	150 µM	increased cell viability	Prolif ↓, lowest concentration at which the mean response value exceeded the mean control value ± 2*SD (rough binning) (JEG-3 cells [3]; JEG-3 cells, 24 h, decrease): 450 µM; EC50 (JEG-3 cells [3]; JEG-3 cells, 24 h exposure, four-parameter fit, estimates meeting inclusion criteria, read-out: Proliferation EC50 ± SD): 388 ± 125 µM
O=S(=O)([O-])C(F)(F)C(F)(F)C(F)(F)C(F)(F)C(F)(F)F.[Na+] [Sodium perfluoropentanesulfonate]	–	200 µM	increased cellular proliferation	–	reduced cell viability	Viability ↓, lowest concentration at which the mean response value exceeded the mean control value ± 2*SD (rough binning) (JEG-3 cells [2]; JEG-3 cells, 24 h, decrease): 350 µM; EC50 (JEG-3 cells [2]; JEG-3 cells, raw model output including fits that did not meet inclusion criteria, read-out: Viability EC50 ± SD (raw values)): 1210 µM

From publication PMC9081605, “A High-Throughput Toxicity Screen of 42 Per- and Polyfluoroalkyl Substances (PFAS) and Functional Assessment of Migration and Gene Expression in Human Placental Trophoblast Cells” (Frontiers in Toxicology, 2022)
